In patent US20220202801A1, “USE OF COMPOUND IN PREPARATION OF DRUG FOR TREATING ATHEROSCLEROSIS” (GenEros Biopharma Ltd., priority 2019, published 2022):

How the values were obtained:
ICAM-1 = assay: Immunohistochemistry of aortic wall, ICAM-1; format: in vivo, mice; conditions: for aorta (ICAM-1) signal expression in blood vessels: IHC-P×400, single animal micrograph; for ICAM-1 average optical density: aortic wall
Text: Methods: SPF grade C57BL/6 ApoE −/−model mice were provided by Guangdong Medical Experimental Animal Center, laboratory animal production license No. SOCK (Guangdong) 2013-0002. Laboratory animal quality certificate number: 44007200048196). Mice were half male and half female, aged 8 to 12 weeks, and 72 animals in total. After four weeks of housing in a SPF-level animal facility, animals with less body weights were disposed. A total of 64 animals were randomly divided into 8 groups, 8 in each group, fed with 10% high-fat food, and received with different treatments. Animals were observed and administered with the medicines by gavage once daily. The body weights were measured once a week and continued for 58 days. […] The test sample was dissolved in dimethyl sulfoxide solution and prepared with 30% PEG300.
After blood collection, the animals were sacrificed, and the aortic arch together with the heart and thoracic aorta were fixed with neutral formaldehyde and subject to pathological examination. The abdominal aorta was collected and quick-frozen in liquid nitrogen, and stored at −80° C.
c) Immunohistochemistry: The thoracic aorta was sliced and detected by immunohistochemistry for the expression of CD68, intercellular adhesion molecule-1 (ICAM-1), and vascular cell adhesion Molecule-1 (VCAM-1).

[1] = test system: atherosclerosis model induced by high-fat diet in ApoE knockout mice; assay: Ratio of atherosclerotic plaque area to total inner wall area of the aorta (En-Face, oil red; Example 2); format: in vivo
Text: Methods: A total of 130 SPF grade C57BL/6 ApoE −/− model male mice aged 8 weeks were purchased from Charles River Laboratories (Beijing, China) (animal license number: SCXK (Beijing) 2016-0001, animal qualification certificate No.: 11400700331337). After one week of acclimatization in a SPF-grade animal facility, the animals with less weights were discarded and the rest was randomly divided into 11 groups, with 8 animals in each group. Except for the healthy control group, the rest were fed with 10% high-fat food (the first day of the high-fat diet was recorded as D1). Starting from the 8th week of the high-fat diet, each group of animals was orally given solvents or corresponding drugs, and the volume of administration was 10 ml/kg, once a day for 8 weeks. Animals were observed and administered by gavage once a day and the body weight were measured once a week for 56 days. […] The store solution of the test samples was dissolved in dimethyl sulfoxide solution and prepared with 30% PEG300.
Immediately after blood was taken from the heart, it was perfused through the left ventricle with 20 ml of normal saline. After bloodletting, the heart and aorta (from the aortic arch to the iliac artery) were isolated. The isolated artery was cut longitudinally from the aortic arch to the iliac artery, fixed in 4% paraformaldehyde for 30 minutes, synchronized with 60% isopropanol for 10 minutes, stained in 60% oil red for 30 minutes, and washed by 60% isopropanol 3 times, 5 minutes each time. Finally, the colored aorta was washed with deionized water and photographed. The proportion of the red plaque area was measured by Image Pro Plus 6.0 (Media Cybernetics, MD, US). The heart samples were fixed in 4% paraformaldehyde solution overnight and then placed in sucrose solution for dehydration. Then, it was embedded with OCT (Sakura, Japan) under a stereo microscope and made into 7 μm frozen sections. After HE staining, the slices were used for routine pathological examination. The outflow tract images were collected under an optical microscope at 4* magnification, and 4*, 10*, 20* and 40* magnification eyepieces were used for high-quality morphological observation. The detection standard referred to the histological classification standard of human atherosclerosis disease.
Evaluate the effect of different therapeutic drugs by the ratio of the area of atherosclerotic plaque to the total area of the inner wall of the aortic vessel (En-Face)
We adopted the widely accepted standard for the severity of arteriosclerosis in animal models, and analyzed the area of all plaques on the inner wall of the aorta. […] FIGS. 46A and 46B are histograms of the ratios of plaque area on the inner wall of the aorta in each treatment group. The values in FIGS. 46A and 46B are the ratios of plaques to the total area of the inner wall in each group, and the error is standard error±SEM. The statistical significance analysis is as follows: ***P<0.001 compared with the normal control group; #P<0.05 compared with the vehicle group; ##P<0.01, ###P<0.001, compared with the vehicle group through one-way ANOVA Dunnett's test; & represents P<0.05, compared with the vehicle group by t test.

O=c1[nH]c2ccccc2n1C1CCN(CCCC(c2ccc(F)cc2)c2ccc(F)cc2)CC1 [Sample A]
aorta (ICAM-1) signal expression in blood vessels (ICAM-1; 2 mg/kg): low to medium
aorta (ICAM-1) signal expression in blood vessels (ICAM-1; 5 mg/kg): low to medium
aorta (ICAM-1) signal expression in blood vessels (ICAM-1; 10 mg/kg): low to medium
ICAM-1 average optical density (ICAM-1; 2 mg/kg gavage QD, 2 mg/kg): 2.11 ± 1.53 ×10^−2
ICAM-1 average optical density (ICAM-1; 2 mg/kg gavage QD, listed as sample A, 2 mg/kg): lower than the model control group
ICAM-1 average optical density (ICAM-1; 5 mg/kg gavage QD, 5 mg/kg): 2.31 ± 1.16 ×10^−2
ICAM-1 average optical density (ICAM-1; 5 mg/kg gavage QD, listed as Nib1, 5 mg/kg): reduced expression
ICAM-1 average optical density (ICAM-1; 5 mg/kg gavage QD, listed as sample A, 5 mg/kg): lower than the model control group
ICAM-1 average optical density (ICAM-1; 10 mg/kg gavage QD, 10 mg/kg): 1.75 ± 1.46 ×10^−2
ICAM-1 average optical density (ICAM-1; 10 mg/kg gavage QD, listed as sample A, 10 mg/kg): lower than the model control group

O=C(N/N=C/c1coc2ccccc2c1=O)c1cccnc1 [Sample B]
aorta (ICAM-1) signal expression in blood vessels (ICAM-1; 1 mg/kg): low to medium
aorta (ICAM-1) signal expression in blood vessels (ICAM-1; 2 mg/kg): low to medium
aorta (ICAM-1) signal expression in blood vessels (ICAM-1; 5 mg/kg): low to medium
ICAM-1 average optical density (ICAM-1; 1 mg/kg gavage QD): 2.44 ± 1.19 ×10^−2
ICAM-1 average optical density (ICAM-1; 2 mg/kg gavage QD, 2 mg/kg): 1.31 ± 1.40 ×10^−2
ICAM-1 average optical density (ICAM-1; 2 mg/kg gavage QD, listed as Nib2, 2 mg/kg): reduced expression
ICAM-1 average optical density (ICAM-1; 2 mg/kg gavage QD, listed as sample B, 2 mg/kg): lower than the model control group
ICAM-1 average optical density (ICAM-1; 5 mg/kg gavage QD): 3.98 ± 1.64 ×10^−2
Mean of Plaque Ratio (plaque area to total inner wall area of aorta) ([1]; 2 mpk PO QD 8 weeks, high-fat diet): 11.22%
symptoms of atherosclerosis under therapeutic intervention (mainly plaque area ratio) ([1]; different doses, Example 2): significantly alleviate the symptoms of atherosclerosis
